# Measured values published in patent publication US11213597B2, “Kinin-based theranostic probes for solid cancers and uses thereof” (SOCIETE DE COMMERCIALISATION DES PRODUITS DE LA RECHERCHE …, priority 2015, dated 2022).
# [ ]: non-standard residue; d: D form. The star is where a group is joined. NOTA = O=C(O)CN1CCN(CC(=O)O)CCN(CC(=O)*)CC1; Oic = O=C(O)[C@@H]1C[C@@H]2CCCC[C@@H]2N1; d2Nal = N[C@H](Cc1ccc2ccccc2c1)C(=O)O; αMeF = C[C@](N)(Cc1ccccc1)C(=O)O; Orn = NCCC[C@H](N)C(=O)O; βAla = NCCC(=O)O
# Columns and labels:
# [1] = tested on: F98 GBM; assay: small animal PET imaging, Fischer/F98 malignant glioma model; assay type: in vivo, rat; details: intravenous, F98 GBM-bearing rats
# Experimental: The F98 GBM cell line (#CRL-2397) was purchased from American Type Culture Collection (ATCC). Cells were cultured as monolayers in Dulbecco's modified Eagle medium (DMEM) supplemented with 10% fetal bovine serum (FBS) and 1% penicillin-streptomycin mixture at 37° C. in a humidified 5% CO2/95% air incubator. The procedure of F98 glioma cell implantation was similar to that used in our previous studies (Côté et al., 2010, Neuropeptides, 44:177-185). […] All tumor transplantations were successful as determined by histology and/or MRI.
# PET scans were performed using a LabPET8 (Gamma Medica Inc.) small animal scanner with an axial field of view of 8 cm. […] PET scans were assessed 1 h and 20 h post-injections. […] Regions of interest were traced for tumor, normal brain, heart, liver, kidney, and muscle, and the activity in each organ was measured and reported to the injected dose for percentages calculation. […] In vivo testing of the novel kinin PET radiotracers was also assessed in a model of tumor metastasis induced by the intracardiac injection of 4T1/luc (bioluminescent) mouse breast cancer cells under ultrasound guidance.
# [2] = tested on: cancer cells; assay: cytotoxicity of B1R radionuclide therapy by clonogenic assays; assay type: cell-based; details: non-radioactive surrogate up to 10 μM
# Experimental: Cytotoxicity of B1R radionuclide therapy was assessed in cancer cells by clonogenic assays. […] Then, media were removed and colonies fixed/stained with 0.5% methylene blue in 50% ethanol, rinsed with tap water and air dried. Colony counting was performed manually or automatically using the Image Pro Plus 5.1.
# [3] = tested on: 4T1/luc metastases; assay: PET and bioluminescence imaging, 4T1/luc mouse mammary tumor metastasis model; assay type: in vivo; details: 4T1/luc mouse model
# Experimental: PET scans were performed using a LabPET8 (Gamma Medica Inc.) small animal scanner with an axial field of view of 8 cm. F98 GBM bearing rats were injected with 74 MBq (2 mCi; 100 μL) of novel ^64Cu radiolabeled B1R peptides (agonist or antagonist) with via the caudal vein under isoflurane anesthesia. PET scans were assessed 1 h and 20 h post-injections. […] The images were reconstructed by a three dimensional MLEM algorithm implementing an analytically derived system matrix (Selivanov et al., 2000, Nuclear Science, IEEE Transactions on, 47: 1168-1175). Regions of interest were traced for tumor, normal brain, heart, liver, kidney, and muscle, and the activity in each organ was measured and reported to the injected dose for percentages calculation. […] In vivo testing of the novel kinin PET radiotracers was also assessed in a model of tumor metastasis induced by the intracardiac injection of 4T1/luc (bioluminescent) mouse breast cancer cells under ultrasound guidance.
# [4] = tested on: F98 GBM; assay: ex vivo biodistribution in F98 GBM-bearing rats; set-up: species or system rat
# Experimental: Ex vivo biodistribution studies were performed by injecting 74 MBq (2 mCi/rat; 100 μL of ^64Cu-NOTA-βAla-Orn^1-Arg^2-Oic^3-Pro^4-Gly^5-(αMe)Phe^6-Ser^7-DβNal^8-Ile^9-OH (SEQ ID NO: 6) to isoflurane-anesthetized normal (non-implanted) or F98 bearing rats via the caudal vein. After 1 and 20 h post-injection, the animals were euthanized by CO2 inhalation. Organs of interest were further collected, weighed, and measured in a gamma-counter (Cobra II auto-gamma counter, Packard, Minn.). The results were expressed as percentage of the injected dose per gram of tissue (% ID/g). Specificity of brain tumor uptake of B1R radiotracers was determined by pre-administration of 1 mg/kg of R954 peptide (5 min prior the injection of the radiolabelled peptide) and using sham-operated contralaterals. Animals bearing B1R target knockdowns were also employed to further support specificity of brain tumor uptake. Experiments were realized with a minimum of 3 rats per group.
# [5] = tested on: brain tumor cells and other types of cancer cells (e.g., breast and prostate); assay: cellular and nuclear uptake of Cu (ICP-MS / radiometric assays); assay type: cell-based
# Experimental: Cellular uptake profiles of non-radioactive Cu-acetate and Cu-labeled peptides in B1R expressing rat F98 GBM cells were evaluated by ICP-MS analysis. Brain cancer cells were allowed to grow to confluence on a 10-cm dish. Cells were then incubated with Cu-acetate or Cu-labeled peptides (500 nM) in FBS free-DMEM at 37° C. for 15 min or 1, 4, or 20 h, respectively. For determination of nonspecific internalization, one set of dishes was incubated with the potent B1R antagonist R-954 (1 μM) at 37° C. for 10 min to block B1R prior to incubation with Cu-labeled peptides. At each time point, media was collected, and cells were acid-washed once (50 mM acetic acid/250 mM NaCl pH 2.5), to remove surface-bound fractions, and then washed twice with Phosphate-buffered saline (PBS, pH 7.4). Thereafter, cells were trypsinized, collected by centrifugation and gently washed with Hank's buffered salt solution (HBSS). Cells were solubilized in 1/1 nitric acid/30% H2O2 solution, and the amount of Cu was determined by ICP-MS. […]
# Irradiating DNA is an effective way to injure and eventually kill cells. […] Pelleted cell-free nuclei were resuspended in 0.5 ml of hypotonic buffer, counted and finally solubilized in 1/1 nitric acid/30% H2O2 solution. […] Quantification of Cu content in the nuclear fractions was done by ICP-MS.
# [6] = tested on: F98 GBM; assay: peptide receptor radionuclide therapy (PRRT), survival of F98 GBM-bearing rats; assay type: in vivo; details: single intravenous treatment 7.5 mCi/rat, day 10 post-inoculation
substance,measurement,setting,value
^64Cu-NOTA-βAla-Orn^1-Arg^2-Oic^3-Pro^4-Gly^5-(αMe)Phe^6-Ser^7-DβNal^8-Ile^9-OH ({NOTA}-[βAla][Orn]R[Oic]PG[αMeF]S[d2Nal]I-OH; also: 64Cu complexed by NOTA),detection of brain tumors by μPET,[1],properly detected relatively small brain tumors
same,anticancer activity / therapeutic efficacy,[2],enhanced anticancer activity
same,PET signal localization versus bioluminescent signals,[3],colocalized with bioluminescent signals from (bone) metastases
same,"brain tumor uptake, ex vivo biodistribution",[4],significant amount of brain tumor uptake
same,cellular localization,[5],localize both in cytoplasmic and nuclear compartment
same,survival with PRRT,[6],tendency of prolonging survival
